From ChEMBL document CHEMBL1932984, “Novel bis(indolyl)hydrazide-hydrazones as potent cytotoxic agents” (Bioorg Med Chem Lett, 2012)

Tests used:
Assay type in all cases: functional, cell-based
LNCaP = test: Cytotoxicity against human LNCAP cells
MCF7 = test: Cytotoxicity against human MCF7 cells
MDA-MB-231 = test: Cytotoxicity against human MDA-MB-231 cells
DU-145 = test: Cytotoxicity against human DU145 cells
MIA PaCa-2 = test: Cytotoxicity against human MIAPaCa2 cells
PC-3 = test: Cytotoxicity against human PC3 cells

| SMILES | IC50 (LNCaP) | IC50 (MCF7) | IC50 (MDA-MB-231) | IC50 (DU-145) | IC50 (MIA PaCa-2) | IC50 (PC-3) |
| --- | --- | --- | --- | --- | --- | --- |
| O=C(N/N=C\c1cn(Cc2ccc(Cl)cc2)c2ccccc12)c1c[nH]c2ccccc12 | > 100 µM | 96.7 µM | 66.4 µM | 52.1 µM | 44.3 µM | 16.2 µM |
| O=C(N/N=C\c1cn(Cc2ccc(Cl)cc2)c2ccc(Br)cc12)c1c[nH]c2ccccc12 | 3.7 µM | 3.2 µM | 1 µM | 3.6 µM | 8.7 µM | 12.4 µM |
| COc1ccc2c(c1)c(/C=N\NC(=O)c1c[nH]c3ccccc13)cn2Cc1ccc(Cl)cc1 | > 100 µM | 8.7 µM | 82.7 µM | 50 µM | 26.7 µM | 30.3 µM |
| O=C(N/N=C\c1cn(Cc2ccc(Cl)cc2)c2cc(F)ccc12)c1c[nH]c2ccccc12 | 55.2 µM | 6 µM | 5.3 µM | 18.6 µM | 18 µM | 19.5 µM |
| COc1ccc2c(c1)c(/C=N\NC(=O)c1c[nH]c3ccc(Br)cc13)cn2Cc1ccc(Cl)cc1 | > 100 µM | 29.1 µM | 5 µM | 57 µM | 26.3 µM | 15.9 µM |
| O=C(N/N=C\c1cn(Cc2ccc(Cl)cc2)c2cc(F)ccc12)c1c[nH]c2ccc(Br)cc12 | 24.8 µM | 8.3 µM | 5.1 µM | 12.5 µM | 10.6 µM | 12.4 µM |
| COc1ccc(Cn2cc(/C=N\NC(=O)c3c[nH]c4ccccc34)c3ccccc32)cc1 | 31.9 µM | 12.4 µM | 15.1 µM | 43.9 µM | 41.6 µM | 14.6 µM |
| COc1ccc(Cn2cc(/C=N\NC(=O)c3c[nH]c4ccccc34)c3cc(OC)ccc32)cc1 | > 100 µM | 15 µM | 9.8 µM | 19.1 µM | 30.5 µM | 13.6 µM |
| COc1ccc(Cn2cc(/C=N\NC(=O)c3c[nH]c4ccccc34)c3ccc(F)cc32)cc1 | > 100 µM | 13.1 µM | 71.2 µM | 16.2 µM | 43.3 µM | 18.4 µM |
| COc1ccc(Cn2cc(/C=N\NC(=O)c3c[nH]c4ccc(Br)cc34)c3ccc(F)cc32)cc1 | > 100 µM | 31.7 µM | 99.8 µM | 67.5 µM | 45.5 µM | 21.8 µM |
| COc1ccc(Cn2cc(/C=N\NC(=O)c3c[nH]c4ccc(Br)cc34)c3cc(OC)ccc32)cc1 | > 100 µM | 3.1 µM | 61.2 µM | 84.4 µM | 44.5 µM | 28 µM |
| COc1ccc(Cn2cc(/C=N\NC(=O)c3cn(C)c4ccccc34)c3ccc(F)cc32)cc1 | 9.6 µM | 22.6 µM | 17.7 µM | 15.2 µM | 55.8 µM | 12.8 µM |
| Cn1cc(C(=O)N/N=C\c2cn(Cc3ccc(Cl)cc3)c3cc(F)ccc23)c2ccccc21 | > 100 µM | 90.6 µM | > 100 µM | 84.2 µM | 50.4 µM | 22.1 µM |
| COc1ccc2c(c1)c(/C=N\NC(=O)c1cn(C)c3ccccc13)cn2Cc1ccc(Cl)cc1 | > 100 µM | 99.1 µM | > 100 µM | 93 µM | 56.4 µM | 21.2 µM |
| COc1cccc2c1C(=O)c1c(O)c3c(c(O)c1C2=O)C[C@@](O)(C(=O)CO)C[C@@H]3O[C@H]1C[C@H](N)[C@H](O)[C@H](C)O1 [DOXORUBICIN] | 5.23 µM | 11.7 µM | 3.07 µM | 15.7 µM | 18.2 µM | 62.3 µM |
